Experimental findings from paper PMC6003355 (2018) are described below.

Molecules are shown by their SMILES.

The subject of the assay is WT T. oceani 112 ilvE RNA (RNA, riboswitch) GGAAGUGUACCUUAGGGUUCCGGCCAUAAGGCGUCAGCGACCGAGCGGUACAAUCCGGGGAAACCCGGAACACCGUGAGCAUAAAAGGCUCCAGCGGCAAGUUCCUAAAAGA
The assay can be described thus: in-line probing. To be noted: apparent; ppGpp 200 pM to 5 µM.

In the case of `Nc1nc2c(ncn2[C@@H]2O[C@H](COP(=O)(O)OP(=O)(O)O)[C@@H](OP(=O)(O)OP(=O)(O)O)[C@H]2O)c(=O)[nH]1`, the KD was ~ 10 nM.
